Laboratory results published in publication PMC12152883, “Bile acids inhibit equilibrative adenosine transport to alter adenosine receptor signaling in cholestasis” (The Journal of Biological Chemistry, 2025).
“And” between values parts separate entries of the source, which are not always exact repeats. Equal entries are not always repeated. Where two headings read alike, the source gives them in different places.

How the values were obtained:
CNT2 = molecular target: T1, CNT2 (Homo sapiens, UniProt O43868); assay: Radiolabeled BA transport in CNT2 mRNA-injected Xenopus oocytes; assay type: cell-based; details: 3H-labelled BA, Na+-containing buffer, pH 7.4
T1 construct: expressed in transfected cells; host or cells: Xenopus laevis oocytes injected with in vitro-transcribed capped mRNA
T1 sequence (O43868 1-658): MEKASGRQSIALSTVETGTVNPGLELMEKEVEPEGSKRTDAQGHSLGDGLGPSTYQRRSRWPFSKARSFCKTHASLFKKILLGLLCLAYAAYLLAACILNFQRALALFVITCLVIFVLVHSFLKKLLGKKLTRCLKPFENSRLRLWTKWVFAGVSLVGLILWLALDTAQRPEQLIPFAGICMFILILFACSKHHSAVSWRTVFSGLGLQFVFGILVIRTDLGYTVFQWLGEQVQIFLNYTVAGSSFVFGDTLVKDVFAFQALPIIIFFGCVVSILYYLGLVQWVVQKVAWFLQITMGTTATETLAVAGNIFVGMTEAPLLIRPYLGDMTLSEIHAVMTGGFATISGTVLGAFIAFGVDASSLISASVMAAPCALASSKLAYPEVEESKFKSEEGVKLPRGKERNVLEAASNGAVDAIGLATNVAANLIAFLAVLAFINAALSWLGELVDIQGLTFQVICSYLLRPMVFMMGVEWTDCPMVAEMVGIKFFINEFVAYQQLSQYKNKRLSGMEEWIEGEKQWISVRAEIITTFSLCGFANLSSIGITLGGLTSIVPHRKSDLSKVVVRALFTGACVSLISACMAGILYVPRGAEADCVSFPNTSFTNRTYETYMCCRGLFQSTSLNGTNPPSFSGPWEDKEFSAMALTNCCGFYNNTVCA
Experimental: We used a Xenopus oocyte-based transport assay that was previously used to examine BA transport by plasma membrane–directed ENT3 with a truncated N-terminus (that harbors lysosomal targeting motif) to experimentally verify whether ENT2 is capable of translocating BAs across the cell membrane ([24]). We tested both ENT1 and ENT2 along with CNT2, a purine nucleoside-specific concentrative transporter, to investigate their capacities to transport radiolabeled BAs. […] Transport was measured at pH 7.4, which is the closest pH to the pH of the extracellular fluid in which cells are exposed to solutes such as BAs to conduct plasma membrane transport ([29]).
The generated pOX expression constructs were linearized with either the Not1 or Sac1 restriction enzymes. The digested products were purified via phenol‒chloroform extraction. The mRNAs were synthesized using mMESSAGE mMACHINE (Ambion) transcription kits according to the manufacturer’s instructions. The mRNAs were purified via lithium precipitation. Oocytes were procured from Ecocyte. Prior to experiments, procured oocytes were defolliculated by treating with collagenase A-OR II solution followed by washing with Barth’s solution. Following microscopic verification, selected oocytes were incubated to recover overnight at 25 °C in a shaker incubator. Fifty nanoliters (400–800 ng/μl) of equal amounts of mRNAs were injected into defolliculated oocytes the next day. Expression of plasmids was analyzed after RNA isolation from oocyte extracts and conducting qPCR analysis with gene-specific primers as described earlier ([30]). The injected oocytes were incubated at 15 °C for 24 h before transport assays were performed. The uptake of radiolabeled substrates was measured after a 30 min incubation in transport buffer (100 mM NaCl, 2 mM KCl, 1 mM CaCl2, 1 mM MgCl2, and 10 mM Hepes, pH 7.4) at room temperature. […] Individual oocytes were shaken overnight in 10% SDS for complete dissolution, and then the radioactivity was quantified with a Beckman liquid scintillation counter. […]

ENT3 = molecular target: T2, ENT3 (Homo sapiens, UniProt Q9BZD2); assay: Inhibition of 3H-nucleoside influx by BAs in ENT3-expressing Xenopus oocytes; assay type: cell-based
T2 construct: plasma membrane–directed ENT3 with a truncated N-terminus (that harbors lysosomal targeting motif); expressed in transfected cells; host or cells: Xenopus laevis oocytes injected with in vitro-transcribed mRNA from pOX-Δ36hENT3
T2 sequence (Q9BZD2 with tags, fused parts or gaps): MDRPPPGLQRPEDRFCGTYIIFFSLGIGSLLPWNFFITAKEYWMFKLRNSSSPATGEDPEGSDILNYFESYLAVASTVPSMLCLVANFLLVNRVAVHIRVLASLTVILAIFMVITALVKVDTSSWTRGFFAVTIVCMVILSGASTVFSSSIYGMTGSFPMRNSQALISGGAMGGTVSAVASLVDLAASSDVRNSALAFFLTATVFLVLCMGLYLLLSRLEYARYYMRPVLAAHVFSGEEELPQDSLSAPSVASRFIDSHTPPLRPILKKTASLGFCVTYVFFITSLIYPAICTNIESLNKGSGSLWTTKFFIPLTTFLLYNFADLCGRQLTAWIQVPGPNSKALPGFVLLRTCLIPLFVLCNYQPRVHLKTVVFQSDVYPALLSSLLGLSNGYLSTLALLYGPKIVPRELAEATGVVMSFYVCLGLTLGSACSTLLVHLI
Text: We expressed individual ENTs (ENT1, ENT2, and ENT3) in X. laevis oocytes (as described above) and analyzed the Ado influx from each of the ENTs in the presence of different BAs to better understand whether the inhibition profiles differ across human ENTs. […] We also conducted an analysis of the concentration-dependent inhibition of Ado transport to estimate the IC50 values of the BAs (Fig. 4, D–F and Table 2).
Inhibition of Ado influx in H2O- and ENT-injected oocytes by treatment with different BAs at 100 μM. D–F, concentration-dependent inhibition of Ado influx in ENT-injected oocytes by different BAs. The bars represent the mean ± SD (n = 8–12 oocytes). A representative experiment from 3 to 5 independent experiments is presented. Statistical analysis was performed using one-way ANOVA with Dunnett’s multiple comparisons test; ∗p < 0.032, ∗∗p < 0.0021, ∗∗∗∗p < 0.0001.
The generated pOX expression constructs were linearized with either the Not1 or Sac1 restriction enzymes. The digested products were purified via phenol‒chloroform extraction. The mRNAs were synthesized using mMESSAGE mMACHINE (Ambion) transcription kits according to the manufacturer’s instructions. The mRNAs were purified via lithium precipitation. Oocytes were procured from Ecocyte. Prior to experiments, procured oocytes were defolliculated by treating with collagenase A-OR II solution followed by washing with Barth’s solution. Following microscopic verification, selected oocytes were incubated to recover overnight at 25 °C in a shaker incubator. Fifty nanoliters (400–800 ng/μl) of equal amounts of mRNAs were injected into defolliculated oocytes the next day. Expression of plasmids was analyzed after RNA isolation from oocyte extracts and conducting qPCR analysis with gene-specific primers as described earlier ([30]). The injected oocytes were incubated at 15 °C for 24 h before transport assays were performed. […] Uptake was terminated by washing the oocytes three times with arrest buffer containing 20 mM uridine. Individual oocytes were shaken overnight in 10% SDS for complete dissolution, and then the radioactivity was quantified with a Beckman liquid scintillation counter. The data are presented as the mean ± SD (n = 8–12 oocytes). A representative experiment from 3 to 5 independent experiments is presented.

[1] = 3H-Ado 20 μM, sodium-free buffer, read-out: ENT3 IC50 (Ado uptake)
[2] = BA 100 μM, 3H-Ado 20 μM, sodium-free buffer

SMILES	transport of BA by CNT2 (CNT2)	IC50 (ENT3; [1]) [µM]	ENT3 % uptake inhibition (Ado) (ENT3; [2])	inhibition of guanosine transport activity of ENT3 (ENT3; BA 100 μM, 3H-guanosine 20 μM)	IC50 (ENT3) [µM]
C[C@H](CCC(=O)O)[C@H]1CC[C@H]2[C@@H]3[C@H](O)C[C@@H]4C[C@H](O)CC[C@]4(C)[C@H]3C[C@H](O)[C@]12C [CA, cholic acid]	incapable of transporting	1.2 ± 0.4	77.1%		
C[C@H](CCC(=O)O)[C@H]1CC[C@H]2[C@@H]3CC[C@@H]4C[C@H](O)CC[C@]4(C)[C@H]3C[C@H](O)[C@]12C [DCA, deoxycholic acid]	incapable of transporting	0.6 ± 0.1	79% and 79.9%	inhibited	
C[C@H](CCC(=O)NCCS(=O)(=O)O)[C@H]1CC[C@H]2[C@@H]3[C@H](O)C[C@@H]4C[C@H](O)CC[C@]4(C)[C@H]3C[C@H](O)[C@]12C [TCA, taurocholic acid]	incapable of transporting		72.3%		52.6 ± 22.2
